Source: US7820651B2, “Preparation of antimicrobial formulations using 7-oxa-2-thia-1,5-diazabicyclo[3.3.1]nonane-2,2-dione” (priority 2006, dated 2010)

Tests used:
[1] = test system: P. aeruginosa (ATCC 15442); experiment: Bactericidal activity according to DIN EN 1040 (membrane filtration), microbial count reduction; format: cell-based; settings: 20°±1° C., pH 6.3
Procedure: (§1) With regard to a possible use as lock solution, a solution was prepared, for testing for antimicrobial activity, by dissolving 0.85 g of cyclotaurolidine and 4.8 g of monosodium citrate in water (100 ml) with stirring, a clear colorless solution being obtained. After the pH of the solution had been adjusted to 6.3, the solution was filtered and filled into ampoules. The bactericidal and fungicidal activity of the solution was tested by a recognized test laboratory according to DIN EN 1040 and DIN EN 1275 (membrane filtration) against the test organisms S. aureus (ATCC 6538), P. aeruginosa (ATCC 15442), S. epidermis (ATCC 12288), C. albicans (ATCC 10231) and A. niger (ATCC 16404). The microbial count reductions observed for an action time of the test solution of 60 min and of 24 h at a test temperature of 20°±1° C. were determined. The results are given in log steps of the microbial count reduction, minimum reductions of ≧5.0 log steps being required with respect to the test microorganisms S. aureus, P. aeruginosa and S. epidermis and log steps of ≧4.0 for C. albicans and A. niger, based on DIN EN 1040 and DIN EN 1275.

S. aureus (ATCC 6538) = experiment: as above; format: cell-based; settings: 20°±1° C., pH 6.3
Procedure: as §1

[2] = test system: S. epidermis (ATCC 12288); experiment: as above; format: cell-based; settings: 20°±1° C., pH 6.3
Procedure: as §1

A. niger (ATCC 16404) = experiment: Fungicidal activity according to DIN EN 1275 (membrane filtration), microbial count reduction; format: cell-based; settings: 20°±1° C., pH 6.3
Procedure: as §1

C. albicans (ATCC 10231) = experiment: as above; format: cell-based; settings: 20°±1° C., pH 6.3
Procedure: as §1

[3] = format: physicochemical
Description: In contrast to taurolidin, cyclotaurolidine can therefore also be processed to give formulations in organic vehicles, for example in many customary organic vehicle materials for pharmaceutical and cosmetic purposes. This permits, for example, advantageous use in ointments and gels and on plastic surfaces (in the surface layers of stents), for example in agents for disinfecting the skin surface or as a fungicide, for example for the feet.

[4] = Exploratory experiments for dissolving in water (solubility); format: physicochemical; settings: in 100 ml of water at room temperature
[5] = action time 60 min, comparative aqueous solution, 2% by weight of taurolidin with citrate
[6] = action time 24 h, comparative aqueous solution, 2% by weight of taurolidin with citrate
[7] = action time 60 min, 0.85 g cyclotaurolidine and 4.8 g monosodium citrate in 100 ml water
[8] = action time 24 h, 0.85 g cyclotaurolidine and 4.8 g monosodium citrate in 100 ml water

SMILES: O=S1(=O)CCN(CN2CCS(=O)(=O)NC2)CN1 [taurolidin, reference compound]
- microbial count reduction [1, 5]: > 5.27 log steps
- microbial count reduction [1, 6]: ≥ 5.27 log steps
- microbial count reduction (S. aureus (ATCC 6538); [5]): 1.33 log steps
- microbial count reduction (S. aureus (ATCC 6538); [6]): ≥ 5.25 log steps
- microbial count reduction [2, 5]: > 0.99 log steps
- microbial count reduction [2, 6]: ≥ 5.29 log steps
- microbial count reduction (A. niger (ATCC 16404); [5]): 1.18 log steps
- microbial count reduction (A. niger (ATCC 16404); [6]): ≥ 4.08 log steps
- microbial count reduction (C. albicans (ATCC 10231); [5]): 0 log steps
- microbial count reduction (C. albicans (ATCC 10231); [6]): 3.70 log steps

SMILES: O=S1(=O)CCN2COCN1C2 [cyclotaurolidine, 7-oxa-2-thia-1,5-diazabicyclo[3.3.1]nonane-2,2-dione]
- solubility in organic solvents [3]: soluble in various organic solvents
- stability in the air [3]: stable in the air at customary temperatures
- microbial count reduction [1, 7]: > 5.27 log steps
- microbial count reduction [1, 8]: > 5.27 log steps
- microbial count reduction (S. aureus (ATCC 6538); [7]): 2.04 log steps
- microbial count reduction (S. aureus (ATCC 6538); [8]): > 5.25 log steps
- microbial count reduction [2, 7]: 1.22 log steps
- microbial count reduction [2, 8]: > 5.29 log steps
- solubility [4]: ≤ 13 mg/mL
- microbial count reduction (A. niger (ATCC 16404); [7]): > 4.08 log steps
- microbial count reduction (A. niger (ATCC 16404); [8]): > 4.08 log steps
- microbial count reduction (C. albicans (ATCC 10231); [7]): > 4.26 log steps
- microbial count reduction (C. albicans (ATCC 10231); [8]): > 4.26 log steps
